Laboratory results taken from patent US7960508B2, “Peptide having cytotoxicity inhibitory activity and method of screening these peptide having cytotoxicity inhibitory activity” (Juridical Foundation The Chemo-Sero-Therapeutic Research …, priority 2001, dated 2011).
Non-standard residues stand in square brackets, D forms with d. Residues, ends and D or L forms follow the SMILES beside them. No end group written: not given here. Sec = N[C@@H](C[SeH])C(=O)O

Legend:
[1] = test system: Dami cells; experiment: Minimum concentration for cytotoxic effect / effective minimum concentration (Example 2); type: cell-based
Description: Using Dami cells (described in Greenberg S. M. et al., Blood, vol. 72, p. 1968-1977 (1988)) for use in assay system for the cytotoxicity-inhibitory activity, the cells were washed twice with assay medium (50% PBS/SA/0.03% HSA (manufactured by SIGMA) or SA/0.05% BSA free from fatty acid (WAKO)/4 μM long-chain polyvalent fatty acid (e.g. arachidonic acid, linoleic acid or linolenic acid)) and suspended in the same medium at 3×10^4 cells/ml.

[2] = test system: intracellular GPX (glutathione peroxidase) activity in Dami cells; experiment: Increase in intracellular GPX (glutathione peroxidase) activity (Example 5); type: cell-based, human
Description: The resulting cells were suspended in SA/0.01% BSA at 5×10^5 cells/ml. To 1 ml of this cell suspension were added samples at a fixed concentration so as to compare a concentration that was effective for increase in GPX activity in the samples.
The samples included a selenoprotein P fragment, a synthetic peptide, selenocystine, selenomethionine, Ebselen and sodium selenite. The effect was compared among these samples. […] See FIG. 4 in which the axis of abscissas indicates a percent GPX activity induced by various samples with the GPX activity induced by addition of 10 nM selenoprotein P fragment being 100% while culture of Dami cells.

[3] = test system: Dami cells; experiment: Screening of efficacious peptides: cytotoxicity-inhibitory activity (Example 3); type: cell-based; conditions: for Activity/1 mM Sec: cytotoxicity-inhibitory activity per 1 mM selenocysteine
Description: (§1) The cells were washed twice with 50% PBS/SA/0.03% HSA (manufactured by SIGMA) and suspended in the same medium at 3×10^4 cells/ml.
(§2) For assessment, it was examined to what folds of dilution of tested samples the cells could survive in view of the fact that on Day 4 the cells in wells without the activity were put to death whereas the cells in wells with the activity survived.
Cytotoxicity-inhibitory activity was determined for each of the peptides obtained above as described in Reference Example 1 and in accordance with Reference Example 2. As a result, selenocysteine-containing peptides, Peptide 3 through Peptide 16, were confirmed to have the cytotoxicity-inhibitory activity.

[4] = test system: Dami cells; experiment: Cytotoxicity induced by fatty acid and inhibitory activity thereto (Reference Example 2); conditions: for fatty acid concentration inducing cytotoxicity: human
Description: To 1 ml Dami cells (1×10^6 cells/dish/3 ml), which can be subcultured in serum free medium SFO3 (manufactured by Sanko Jun-yaku K.K.) containing 0.05 μM 2ME and 0.1% BSA, was added 2 ml 1:2:2 mixed medium (SA medium) of RPMI 1640/D-MEM/F-12. The cells were cultured for three days and recovered for assay. The cells were washed twice with SA/0.05% fatty acid free BSA (manufactured by Wako Jun-yaku K.K.) and suspended at 3×10^4 cells/ml in the same medium containing 2 to 16 μM arachidonic acid, linoleic acid or linolenic acid. The cell suspension was added to a 96-well plate in each 198 μl for wells for sample addition or in each 100 μl for wells for serial dilution.
To the wells for sample addition was added each 2 μl of 100 μM assay sample and, after stirring, a serial dilution was made with the wells containing 100 μl cell suspension. The plate was incubated at 37° C. in CO2 incubator for 4 to 5 days.

[5] = test system: Dami cells; experiment: Assessment system for activity to inhibit cytotoxicity induced by addition of albumin (Reference Example 1); type: cell-based
Description: As one of preferable embodiments, a culture system of Dami cells, human megakaryoblasts, with serum free culture medium supplemented with albumin was used for screening. […] A diluted sample of active fractions was added to this culture system so that the cytotoxicity-inhibitory activity could be assessed.
as §1, §2

[6] = 1 nM, 10 nM selenoprotein P fragment being 100%

O=[Se](O)O [sodium selenite]
concentration at which toxicity was observed ([1]; on the basis of selenium concentration, 4 to 5 days culture): around 500 nM | increase in intracellular GPX activity [2, 6]: around 50%

KRCINQLLCKLPTDSELAPRS (cysteine pairing not given here) [Peptide 1]
Activity/1 mM Sec [3]: 0

CCCCC/C=C\C/C=C\C/C=C\C/C=C\CCCCCC(=O)O [adrenic acid]
induction of cytotoxicity by fatty acid ([4]; 10 μM, serum free culture, absence of selenoprotein P): induced cytotoxicity

Xaa Pro Ser Asn ([Sec]PSN; listed as Human plasma) [Peptide 13]
Activity/1 mM Sec [3]: 24,000

vitamin E
effective concentration inhibiting cytotoxicity ([4]; in the presence of 4 μM linoleic acid): about 100 nM

Leu Ile Pro Thr Glu Ala Ser Ala Ser Xaa Arg (LIPTEASAS[Sec]R; listed as Human plasma) [Peptide 11]
Activity/1 mM Sec [3]: 28,000

Ala Glu Glu Asn Ile Thr Glu Ser Ser Gln Xaa Arg (AEENITESSQ[Sec]R; listed as Human plasma) [Peptide 10]
Activity/1 mM Sec [3]: 6,000

Glu Asn Leu Pro Ser Leu Ser Ser Xaa Gln Gly Leu Arg (ENLPSLSS[Sec]QGLR; listed as Human plasma) [Peptide 9]
Activity/1 mM Sec [3]: 24,000

RSSCCHCRHLIFEK (cysteine pairing not given here) [Peptide 2]
Activity/1 mM Sec [3]: 0

CC[C@H](C)[C@H](NC(=O)[C@H](CC(C)C)NC(=O)[C@H](Cc1c[nH]cn1)NC(=O)[C@H](CCCNC(=N)N)NC(=O)[C@H](CO)NC(=O)[C@H](Cc1c[nH]cn1)NC(=O)[C@H](CO)NC(=O)[C@H](CO)NC(=O)[C@H](C[SeH])NC(=O)[C@H](CO)NC(=O)[C@@H](N)CCCNC(=N)N)C(=O)N[C@@H](Cc1ccccc1)C(=O)N[C@@H](CCC(=O)O)C(=O)N[C@@H](CCCCN)C(=O)O [Peptide 6] (H-RS[Sec]SSHSRHLIFEK-OH)
cytotoxicity-inhibitory activity ([3]; result in words): could inhibit cytotoxicity most effectively at the lowest concentration

O=c1c2ccccc2[se]n1-c1ccccc1 [Ebselen]
toxicity upon addition to cell culture [1]: exhibited a strong toxicity

Thr Gly Ser Ala Ile Thr Xaa Gln Ser Lys (TGSAIT[Sec]QSK; listed as Human plasma) [Peptide 8]
Activity/1 mM Sec [3]: 79,000

N[C@@H](C[Se][Se]C[C@H](N)C(=O)O)C(=O)O [selenocystine]
toxicity upon addition to cell culture [1]: fairly strong toxicity | increase in intracellular GPX activity [2, 6]: around 50%

Lys Arg Cys Ile Asn Gln Leu Leu Cys Lys Leu Pro Thr Asp Ser Glu Leu Ala Pro Arg Ser Xaa Cys Cys His Cys Arg His Leu Ile Phe Glu Lys (KRCINQLLCKLPTDSELAPRS[Sec]CCHCRHLIFEK; cysteine pairing not given here; listed as Human plasma) [SEQ ID NO: 3, peptide fragment purified under reduced condition from selenoprotein P fragment]
cytotoxicity-inhibitory activity ([5]; result in words, assay not specified): had the cytotoxicity-inhibitory activity

CCCCC/C=C\C/C=C\CCCCCCCC(=O)O [linoleic acid]
fatty acid concentration inducing cytotoxicity [4]: ≥ 4 µM

Arg Ser Xaa Ser (RS[Sec]S; listed as Human plasma) [Peptide 7]
Activity/1 mM Sec [3]: 95,000

Arg Ser Xaa Cys Cys His Cys Arg His Leu Ile Phe Glu Lys (RS[Sec]CCHCRHLIFEK; cysteine pairing not given here; listed as Human plasma) [Peptide 3]
Activity/1 mM Sec [3]: 95,000

Leu Pro Pro Ala Ala Xaa Gln Ile Ser Gln Gln (LPPAA[Sec]QISQQ; listed as Human plasma) [Peptide 16]
Activity/1 mM Sec [3]: 24,000

Lys Asn Gln Ala Lys Lys Xaa Glu (KNQAKK[Sec]E; listed as Human plasma) [Peptide 12]
Activity/1 mM Sec [3]: 24,000

C[Se]CC[C@H](N)C(=O)O [selenomethionine]
effective minimum concentration of selenium to inhibit 80% or more of cytotoxicity [1]: around 1 μM | increase in intracellular GPX activity ([2]; 10 nM): increase in the activity could scarcely be observed

CCCCC/C=C\C/C=C\C/C=C\C/C=C\CCCC(=O)O [arachidonic acid]
fatty acid concentration inducing cytotoxicity [4]: ≥ 4 µM

Arg Ser Xaa Ser Cys His Cys Arg His Leu Ile Phe Glu Lys (RS[Sec]SCHCRHLIFEK; cysteine pairing not given here; listed as Human plasma) [Peptide 4]
Activity/1 mM Sec [3]: 24,000

Lys Glu Phe Ile Leu His Arg Ser His Ser Ser Xaa Ser Arg (KEFILHRSHSS[Sec]SR; listed as Human plasma) [Peptide 14]
Activity/1 mM Sec [3]: 95,000

Arg Ser Xaa Ser Ser His Cys Arg His Leu Ile Phe Glu Lys (RS[Sec]SSHCRHLIFEK; listed as Human plasma) [Peptide 5]
Activity/1 mM Sec [3]: 16,000

B1: full-length selenoprotein P: selenoprotein P as an intact molecule, a protein from blood components (protein, UniProt P49908 1-381, looked up)
chain: MWRSLGLALALCLLPSGGTESQDQSSLCKQPPAWSIRDQDPMLNSNGSVTVVALLQASUYLCILQASKLEDLRVKLKKEGYSNISYIVVNHQGISSRLKYTHLKNKVSEHIPVYQQEENQTDVWTLLNGSKDDFLIYDRCGRLVYHLGLPFSFLTFPYVEEAIKIAYCEKKCGNCSLTTLKDEDFCKRVSLATVDKTVETPSPHYHHEHHHNHGHQHLGSSELSENQQPGAPNAPTHPAPPGLHHHHKHKGQHRQGHPENRDMPASEDLQDLQKKLCRKRCINQLLCKLPTDSELAPRSUCCHCRHLIFEKTGSAITUQCKENLPSLCSUQGLRAEENITESCQURLPPAAUQISQQLIPTEASASURUKNQAKKUEUPSN
modifications: full-length
notes: selenoprotein P as an intact molecule, a protein from blood components
toxicity upon addition to cell culture [1]: no strong toxicity

B2: SEQ ID NO: 2: selenoprotein P fragment with the amino acid sequence from 260th Lys to 362nd Asn, Xaa represents selenocysteine (protein, listed as Human plasma)
chain: KRCINQLLCKLPTDSELAPRS[Sec]CCHCRHLIFEKTGSAIT[Sec]QCKENLPSLCS[Sec]QGLRAEENITESCQ[Sec]RLPPAA[Sec]QISQQLIPTEASAS[Sec]R[Sec]KNQAKK[Sec]E[Sec]PSN
cytotoxicity-inhibitory activity [5]: having the cytotoxicity-inhibitory activity
